The test system of experiment [1] is ethanol dependent rats. As to the kind of experiment: Voluntary ethanol intake in ethanol dependent (alcohol preferring) rats, free choice between 10% ethanol solution and water. The format is in vivo, Long Evans rats. From the text: Ethanol dependent rats were selected as previously described (Boismare F., Daoust M., Moore N., Saligaut C., Chadelaud M., Chrétien P., Durlach J., Lhuintre J. P., A homotaurine derivative reduces the voluntary intake of ethanol by rats: are cerebral GABA receptors involved?, Pharm. Biochem. Behav., 21, 787-789, 1984).
Adult male Long Evans rats weighing 180±20 g at the beginning of the experiment were obtained from “Centre d'élevage Janvier” (France). The rats were housed in individual cages and had free access to food (UAR, France standard diet). They were kept with an ambient temperature of 21° C. and a 12 hr/12 hr light-dark photoperiod. […] Every other day, fluid intakes and body weights were measured, the drinking bottles were refilled and randomly rotated. Food consumption was also measured each week be weighting food pellets. […]
All the drugs were prepared as saline (NaCl 0.9%) solutions and animals were daily i.p. injected with: acamprosate 100 mg/kg, naltrexone 10 mg/kg, acamprosate 100 mg/kg+naltrexone 10 mg/kg or saline 1 ml/200 g body weight. […] Alcohol intakes were expressed as gram of absolute alcohol drunk per kilo of body weight per day (g.kg.d) for alcohol.
FIG. 1 represents means±sem of ethanol intake, expressed as gram of absolute alcohol during each period of pre-treatment, treatment and post-treatment in all groups of rats. […]

Experiment [2] has as its system alcohol dependent patients. Particulars: used together with supportive therapy; cited from earlier work.

Where two headings read alike, the source gives them in different places.

Consider `CC(=O)NCCCS(=O)(=O)O` [acamprosate], for which the Ethanol intake result in experiment [1] (acamprosate 100 mg/kg daily i.p., 14 days treatment period, p<0.008) is recorded as “significantly decreased”.

Regarding `O=C1CC[C@@]2(O)[C@H]3Cc4ccc(O)c5c4[C@@]2(CCN3CC2CC2)[C@H]1O5` [naltrexone], in experiment [1], the Ethanol intake entry is given as “significantly decreased”. The “Rate of relapse to heavy drinking” value in experiment [2] is “reduce the rate of relapse to heavy drinking”.

The values above are taken from US6512009B1, “Combination for the treatment of alcohol and drug dependence containing an opioid antagonist and a NMDA receptor complex modulator” (Lipha, priority 1998, dated 2003).
